Columns and labels:
[1] = target: T1, human cloned CHRM5 receptor (M5_CHO) (Homo sapiens, UniProt P08912); experiment: CHRM5 Ca++ Flux Assay (agonist mode, FDSS 7000EX); assay type: cell-based; settings: for Emax: Percent Activity measured to EC100 of Carbachol, read-out: M5 FDSS PA; for EC50: agonist mode, geometric mean if tested more than once, read-out: M5 FDSS EC50
T1 construct: expressed in transfected cells; host or cells: CHO (M5_CHO)
T1 sequence (P08912 1-532): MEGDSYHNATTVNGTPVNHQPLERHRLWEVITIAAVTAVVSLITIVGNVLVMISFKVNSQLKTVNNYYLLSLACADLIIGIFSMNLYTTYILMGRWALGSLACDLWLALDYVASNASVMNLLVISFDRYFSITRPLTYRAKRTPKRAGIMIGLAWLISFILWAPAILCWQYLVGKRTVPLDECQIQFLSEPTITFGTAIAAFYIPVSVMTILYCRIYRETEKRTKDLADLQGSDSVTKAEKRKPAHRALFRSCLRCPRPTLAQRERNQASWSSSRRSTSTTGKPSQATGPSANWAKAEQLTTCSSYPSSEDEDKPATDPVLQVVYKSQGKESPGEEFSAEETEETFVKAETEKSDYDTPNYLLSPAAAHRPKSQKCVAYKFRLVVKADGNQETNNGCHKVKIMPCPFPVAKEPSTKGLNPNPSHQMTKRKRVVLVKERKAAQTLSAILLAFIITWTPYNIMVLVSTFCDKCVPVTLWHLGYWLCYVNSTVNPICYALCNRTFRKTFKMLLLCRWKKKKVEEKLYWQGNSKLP
Summary of the method: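 Agonist responses are measured as calcium mobilization in CHO-K1 cells expressing human M3 or M5, tested over an 11-point dose range in triplicate. Percent activity is normalised to carbachol at EC100.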

[2] = target: T2, human cloned CHRM2 receptor (M2_CHO cells) (Homo sapiens, UniProt P08172); experiment: CHRM2 Ca++ Flux Assay (agonist mode, FDSS 7000EX); assay type: cell-based; settings: for Emax: Percent Activity measured to EC100 of Carbachol, read-out: M2 FDSS PA; for EC50: agonist mode, geometric mean if tested more than once, read-out: M2 FDSS EC50
T2 construct: expressed in transfected cells; host or cells: CHO-K1
T2 sequence (P08172 1-466): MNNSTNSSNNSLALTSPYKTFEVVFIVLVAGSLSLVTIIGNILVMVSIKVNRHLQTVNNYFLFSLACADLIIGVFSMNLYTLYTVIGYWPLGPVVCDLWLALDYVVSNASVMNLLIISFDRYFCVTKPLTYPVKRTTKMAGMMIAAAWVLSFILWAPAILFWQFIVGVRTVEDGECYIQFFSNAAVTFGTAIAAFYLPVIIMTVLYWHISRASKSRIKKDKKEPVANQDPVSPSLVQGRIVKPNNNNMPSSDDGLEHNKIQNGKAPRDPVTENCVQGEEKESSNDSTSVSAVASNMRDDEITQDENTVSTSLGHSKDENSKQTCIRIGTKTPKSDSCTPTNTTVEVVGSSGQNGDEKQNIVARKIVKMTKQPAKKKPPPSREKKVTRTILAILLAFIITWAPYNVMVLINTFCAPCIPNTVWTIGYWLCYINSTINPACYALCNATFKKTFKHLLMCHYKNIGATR
Summary of the method: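 Response expressed as percent activity versus the Carbachol EC100, with curves fitted by four-parameter non-linear regression of triplicates. Stable M2_CHO cells were Ca++ dye-loaded and preincubated 60 min at room temperature in assay buffer containing 20 μM ATP; signal imaged for 3 minutes after compound.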

Row | SMILES | Emax [1] [%] | EC50 [1] [nM] | Emax [2] [%] | EC50 [2] [nM]
1 | c1ccc(C2CCN([C@@H]3CCC4(C3)CN(c3cncnc3)C4)CC2)c(OC2CC3(COC3)C2)c1 [Example 1O, (R)-6-(4-(2-((2-oxaspiro[3.3]heptan-6-yl)oxy)phenyl)piperidin-1-yl)-2-(pyrimidin-5-yl)-2-azaspiro[3.4]octane] | 0 | > 25000 | 0 | 
2 | Fc1ccc(C2CCOC2)c(C2CCN([C@@H]3CCC4(C3)CN(c3nnco3)C4)CC2)c1 (mixture of isomers) [Example 2J, 2-((6R)-6-(4-(5-fluoro-2-(tetrahydrofuran-3-yl)phenyl)piperidin-1-yl)-2-azaspiro[3.4]octan-2-yl)-1,3,4-oxadiazole] | 0 | > 25000 | 37 | 36
3 | CC(C)(O)CCOc1ccccc1C1CCN([C@@H]2CCC3(C2)CN(C(=O)C2COC2)C3)CC1 [Example 7CC, (R)-(6-(4-(2-(3-hydroxy-3-methylbutoxy)phenyl)piperidin-1-yl)-2-azaspiro[3.4]octan-2-yl)(oxetan-3-yl)methanone] | 9 | 2010 | 0 | 
4 | Fc1cccc(C2CCN([C@@H]3CCC4(C3)CN(c3nncs3)C4)CC2)c1OC1COC1 [Example 3E, (R)-2-(6-(4-(3-fluoro-2-(oxetan-3-yloxy)phenyl)piperidin-1-yl)-2-azaspiro[3.4]octan-2-yl)-1,3,4-thiadiazole] | 0 | > 25000 | 31 | 191
5 | COc1ccccc1C1CCN([C@@H]2CCC3(C2)CN(c2ccns2)C3)CC1 [Example 3I, (R)-5-(6-(4-(2-methoxyphenyl)piperidin-1-yl)-2-azaspiro[3.4]octan-2-yl)isothiazole] | 0 | > 25000 | 40 | 
6 | CC(C)(O)COc1ccccc1C1CCN([C@@H]2CCC3(C2)CN(c2nncs2)C3)CC1 [Example 3G, (R)-1-(2-(1-(2-(1,3,4-thiadiazol-2-yl)-2-azaspiro[3.4]octan-6-yl)piperidin-4-yl)phenoxy)-2-methylpropan-2-ol] | 0 | > 25000 | 20 | 304
7 | CC(C)(O)COc1ccccc1C1CCN([C@@H]2CCC3(C2)CN(c2nnco2)C3)CC1 [Example 2A, (R)-1-(2-(1-(2-(1,3,4-oxadiazol-2-yl)-2-azaspiro[3.4]octan-6-yl)piperidin-4-yl)phenoxy)-2-methylpropan-2-ol] | 0 | > 25000 | 12 | 117
8 | c1ccc(C2CCN([C@@H]3CCC4(C3)CN(c3nncs3)C4)CC2)c(OC[C@@H]2COCCO2)c1 [Example 3C, 2-((R)-6-(4-(2-(((S)-1,4-dioxan-2-yl)methoxy)phenyl)piperidin-1-yl)-2-azaspiro[3.4]octan-2-yl)-1,3,4-thiadiazole] | 0 | > 25000 | 18 | 24
9 | c1ccc(C2CCN([C@@H]3CCC4(C3)CN(c3nnco3)C4)CC2)c(OC[C@@H]2COCCO2)c1 [Example 1E, 2-((R)-6-(4-(2-(((S)-1,4-dioxan-2-yl)methoxy)phenyl)piperidin-1-yl)-2-azaspiro[3.4]octan-2-yl)-1,3,4-oxadiazole] | 0 | > 25000 | 14 | 21
10 | COc1ccccc1C1CCN([C@@H]2CCC3(C2)CN(c2cnc(C)cn2)C3)CC1 [Example 5DD, (R)-6-(4-(2-methoxyphenyl)piperidin-1-yl)-2-(5-methylpyrazin-2-yl)-2-azaspiro[3.4]octane] | 0 | > 25000 | 0 | > 25000
11 | c1ccc(C2CCN([C@@H]3CCC4(C3)CN(c3nnco3)C4)CC2)c(-c2ncco2)c1 [Example 2M, (R)-2-(6-(4-(2-(oxazol-2-yl)phenyl)piperidin-1-yl)-2-azaspiro[3.4]octan-2-yl)-1,3,4-oxadiazole] | 0 | > 25000 | 18 | 343
12 | c1ccc(C2CCN([C@@H]3CCC4(C3)CN(c3nncs3)C4)CC2)c(OC2COC2)c1 [Example 3A, (R)-2-(6-(4-(2-(oxetan-3-yloxy)phenyl)piperidin-1-yl)-2-azaspiro[3.4]octan-2-yl)-1,3,4-thiadiazole] | 0 | > 25000 | 21 | 76
13 | CC(C)(O)CCOc1ccccc1C1CCN([C@@H]2CCC3(C2)CN(c2nnco2)C3)CC1 [Example 1F] | 0 | > 25000 | 0 | 
14 | c1ccc(C2CCN([C@@H]3CCC4(C3)CN(c3cncnc3)C4)CC2)c(OCC2COC2)c1 [Example 1N, (R)-6-(4-(2-(oxetan-3-ylmethoxy)phenyl)piperidin-1-yl)-2-(pyrimidin-5-yl)-2-azaspiro[3.4]octane] | 0 | > 25000 | 10 | 7
15 | c1ccc(C2CCN([C@@H]3CCC4(C3)CN(c3nnco3)C4)CC2)c(OCC2CCOCC2)c1 [Example 2G, (R)-2-(6-(4-(2-((tetrahydro-2H-pyran-4-yl)methoxy)phenyl)piperidin-1-yl)-2-azaspiro[3.4]octan-2-yl)-1,3,4-oxadiazole] | 0 | > 25000 | 19 | 136
16 | CC(C)COc1ccccc1C1CCN([C@@H]2CCC3(C2)CN(C(=O)C2COC2)C3)CC1 [Example 7F, (R)-(6-(4-(2-isobutoxyphenyl)piperidin-1-yl)-2-azaspiro[3.4]octan-2-yl)(oxetan-3-yl)methanone] | 0 | > 25000 | 0 | 

Now from value to molecule:

Row | Emax [1] [%] | EC50 [1] [nM] | Emax [2] [%] | EC50 [2] [nM] | SMILES
17 | 0 | > 25000 | 16 | 123 | O=C(C1COC1)N1CC2(CC[C@@H](N3CCC(c4ccccc4OCC4CC4)CC3)C2)C1 [Example 7I, (R)-(6-(4-(2-(cyclopropylmethoxy)phenyl)piperidin-1-yl)-2-azaspiro[3.4]octan-2-yl)(oxetan-3-yl)methanone]
18 | 0 | > 25000 | 23 | 590 | CC(C)Oc1ccccc1C1CCN([C@@H]2CCC3(C2)CN(C(=O)C2COC2)C3)CC1 [Example 7K, (R)-(6-(4-(2-isopropoxyphenyl)piperidin-1-yl)-2-azaspiro[3.4]octan-2-yl)(oxetan-3-yl)methanone]
19 | 0 | > 25000 | 55 | 142 | O=C(C1COC1)N1CC2(CC[C@@H](N3CCC(c4ccccc4OC4CC4)CC3)C2)C1 [Example 7A, (R)-(6-(4-(2-cyclopropoxyphenyl)piperidin-1-yl)-2-azaspiro[3.4]octan-2-yl)(oxetan-3-yl)methanone]
20 | 16 | 2200 | 31 | 92 | N#CCCOc1ccccc1C1CCN([C@@H]2CCC3(C2)CN(C(=O)C2COC2)C3)CC1 [Example 7D, (R)-3-(2-(1-(2-(oxetane-3-carbonyl)-2-azaspiro[3.4]octan-6-yl)piperidin-4-yl)phenoxy)propanenitrile]
21 | 13 | 1560 | 23 | 141 | O=C(C1COC1)N1CC2(CC[C@@H](N3CCC(c4ccccc4OC[C@@H]4CCOC4)CC3)C2)C1 [Example 7E, oxetan-3-yl((R)-6-(4-(2-(((R)-tetrahydrofuran-3-yl)methoxy)phenyl)piperidin-1-yl)-2-azaspiro[3.4]octan-2-yl)methanone]

— US12122761B2, “2-azaspiro[3.4]octane derivatives as M4 agonists” (NOVARTIS AG, priority 2019, dated 2024)
